How the values were obtained:
Assay type in all cases: biochemical
MMP-1 = molecular target: T1, MMP-1 (Homo sapiens, UniProt P03956); experiment: In vitro MMP-1 inhibition test
T1 construct: purchased R&D Systems 901-MP
T1 sequence (P03956 100-469): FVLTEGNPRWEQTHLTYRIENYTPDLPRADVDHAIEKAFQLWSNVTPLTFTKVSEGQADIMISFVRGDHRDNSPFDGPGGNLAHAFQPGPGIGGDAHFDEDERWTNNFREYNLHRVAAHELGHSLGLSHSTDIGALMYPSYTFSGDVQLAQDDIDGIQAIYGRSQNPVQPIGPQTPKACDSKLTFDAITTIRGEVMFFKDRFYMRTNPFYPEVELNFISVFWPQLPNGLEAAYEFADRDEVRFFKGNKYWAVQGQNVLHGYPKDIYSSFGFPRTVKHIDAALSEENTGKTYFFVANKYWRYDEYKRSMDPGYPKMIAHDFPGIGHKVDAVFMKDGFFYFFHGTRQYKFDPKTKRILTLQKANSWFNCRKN
Procedure, shortened: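 APMA-activated recombinant enzyme (e.g. 2 nM final) in 50 mM Tris/HCl pH 7.5, 10 mM CaCl2, 150 mM NaCl, 0.05% Brij-35 with compound in DMSO (e.g. 1 nM–30 μM). Quenched Mca-Pro-Leu-Gly-Leu-Dpa(Dnp)-Ala-Arg-NH2 substrate (e.g. 10 μM) started reaction; fluorescence (ex 320/em 410 nm) followed e.g. 120 min at 32° C; IC50 at 50% signal.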

MMP-2 = molecular target: T2, MMP-2 (Homo sapiens, UniProt P08253); experiment: In vitro MMP-2 inhibition test
T2 construct: purchased R&D Systems 902-MP
T2 sequence (P08253 110-660): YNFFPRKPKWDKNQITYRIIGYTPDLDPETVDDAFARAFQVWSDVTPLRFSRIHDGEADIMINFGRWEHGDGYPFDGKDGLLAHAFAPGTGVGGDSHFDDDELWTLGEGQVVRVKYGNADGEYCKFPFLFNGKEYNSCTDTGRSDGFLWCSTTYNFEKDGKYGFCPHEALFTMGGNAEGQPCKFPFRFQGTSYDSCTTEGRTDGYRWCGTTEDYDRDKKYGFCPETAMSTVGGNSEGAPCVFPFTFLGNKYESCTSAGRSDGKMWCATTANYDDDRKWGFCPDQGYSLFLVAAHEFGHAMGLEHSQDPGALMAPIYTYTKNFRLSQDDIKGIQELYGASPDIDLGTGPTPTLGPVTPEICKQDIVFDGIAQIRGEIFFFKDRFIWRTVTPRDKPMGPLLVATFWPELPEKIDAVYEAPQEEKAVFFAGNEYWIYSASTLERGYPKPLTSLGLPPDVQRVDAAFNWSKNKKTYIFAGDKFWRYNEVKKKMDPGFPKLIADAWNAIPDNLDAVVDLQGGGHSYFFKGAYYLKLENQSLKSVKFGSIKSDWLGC
Procedure, shortened: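 APMA-activated recombinant MMP-2 (final e.g. 2 nM) in 50 mM Tris/HCl pH 7.5, 10 mM CaCl2, 150 mM NaCl, 0.05% Brij-35, with compound in DMSO. Started with quenched Mca-PLGL-Dpa(Dnp)-AR-NH2 (e.g. 10 μM); fluorescence (ex 320/em 410 nm) followed e.g. 120 min at 32° C.; IC50 at 50% signal.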

MMP-9 = molecular target: T3, MMP-9 (Homo sapiens, UniProt P14780); experiment: In vitro MMP-9 inhibition test
T3 construct: purchased R&D Systems 911-MP
Procedure, shortened: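 Recombinant MMP-9 was APMA-activated and used at e.g. 0.1 nM final in 50 mM Tris/HCl pH 7.5, 10 mM CaCl2, 150 mM NaCl, 0.05% Brij-35, with compound at e.g. 1 nM to 30 μM. Quenched Mca-Pro-Leu-Gly-Leu-Dpa(Dnp)-Ala-Arg-NH2 substrate (e.g. 10 μM) was followed by fluorescence (ex 320/em 410 nm), e.g. 120 min at 32 °C. IC50 corresponds to 50% signal.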

T3 sequence (P14780 107-707 limits assumed): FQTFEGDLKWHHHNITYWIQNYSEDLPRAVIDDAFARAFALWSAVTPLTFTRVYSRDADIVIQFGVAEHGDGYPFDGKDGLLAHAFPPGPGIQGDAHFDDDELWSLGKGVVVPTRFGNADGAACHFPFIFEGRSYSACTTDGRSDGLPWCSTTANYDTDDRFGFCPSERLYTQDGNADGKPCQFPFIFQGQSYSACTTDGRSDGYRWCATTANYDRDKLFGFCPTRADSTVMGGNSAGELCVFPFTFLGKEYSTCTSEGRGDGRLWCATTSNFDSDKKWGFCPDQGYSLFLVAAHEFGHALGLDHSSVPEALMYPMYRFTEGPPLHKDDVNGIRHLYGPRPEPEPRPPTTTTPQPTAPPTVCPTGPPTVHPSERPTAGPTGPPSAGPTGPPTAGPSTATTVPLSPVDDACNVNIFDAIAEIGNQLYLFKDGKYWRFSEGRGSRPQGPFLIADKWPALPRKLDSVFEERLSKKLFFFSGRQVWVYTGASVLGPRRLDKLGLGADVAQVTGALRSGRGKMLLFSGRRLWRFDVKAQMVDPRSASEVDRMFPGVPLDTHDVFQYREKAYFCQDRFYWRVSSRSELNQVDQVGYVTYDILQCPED

Row | IC50 (MMP-1) [µM] | IC50 (MMP-2) [µM] | IC50 (MMP-9) [µM] | Molecule
1 | 13 | 0.28 | 0.057 | CCCCCCOc1ccc(C(=O)[C@@H]2CC[C@H](Cn3nnc4ccc(C)cc4c3=O)[C@H]2C(=O)O)cc1 (single isomer, unassigned) [Example 121, (+)-(1RS,2RS,5SR)-2-[4-(Hexyloxy)benzoyl]-5-[(6-methyl-4-oxo-1,2,3-benzotriazin-3(4H)-yl)methyl]cyclopentanecarboxylic acid]
2 | 5.4 | 0.83 | 2.1 | COC(=O)Nc1cccc(COc2ccc(C(=O)[C@@H]3CC[C@H](Cn4nnc5ccc(C(F)(F)F)cc5c4=O)[C@H]3C(=O)O)cc2)c1 (stereo in doubt) [Example 31, (+)-(1RS,2RS,5SR)-2-[4-({3-[(Methoxycarbonyl)amino]benzyl}oxy)benzoyl]-5-{[4-oxo-6-(trifluoromethyl)-1,2,3-benzotriazin-3(4H)-yl]methyl}cyclopentanecarboxylic acid]
3 | 17 | 0.7 | 0.26 | (+)-(1RS,2RS,5SR)-2-{4-[(3,4-Dichlorobenzyl)oxy]benzoyl}-5-{[4-oxo-6-(trifluoromethyl)-1,2,3-benzotriazin-3(4H)-yl]methyl}cyclopentanecarboxylic acid [Example 28]
4 | 27 | 4.8 | 1.5 | (+)-(1RS,2RS,5SR)-2-{4-[Cyclohexyl)methyl)sulphanyl]benzoyl}-5-{[4-oxo-6-(trifluoromethyl)-1,2,3-benzotriazin-3(4H)-yl]methyl}cyclopentanecarboxylic acid [Example 86]
5 | > 40 | 6.7 | 2.1 | (+)-(1RS,2SR,5RS)-2-{[4-Oxo-6-(trifluoromethyl)-1,2,3-benzotriazin-3(4H)-yl]methyl}-5-{4-[(2-phenylethy)sulphanyl]benzoyl}cyclopentanecarboxylic acid [Example 83]
